Measurements: a melting point compilation (Tetko et al.; mined from patent text by program, amines drawn as free bases though some values may be those of a salt)

Row | melting point [°C] | SMILES
1 | 93 to 95 | Cc1ccc(COc2ncc(F)c(NC(=O)c3ccccc3)n2)cc1
2 | 127 to 131 | O=C1c2ccccc2Nc2ccccc2N1CCCCl
3 | 126 | CCCC1(CC)Cc2cc(OCC(=O)O)c(Cl)c(Cl)c2C1=O (stereo not given)
4 | 168 to 170 | CS(=O)(=O)c1ccc(-c2oc3ccccc3c(=O)c2-c2ccc(Br)cc2)cc1
5 | 77 to 80 | CC1(C)CC(S(=O)(=O)Cc2cnccc2C(F)(F)F)=NO1
6 | 206 | Cc1nn(-c2ccccn2)c2nc3ccc(C(F)(F)F)cc3c(Cl)c12
7 | 228 | Cc1ccc(C(=O)Nc2ccc3ccc(Cl)nc3n2)cc1
8 | 216 to 218 | CCOC(=O)c1cn(C2CC2)c2c(CO)c(N3CCN(C)CC3)c(F)cc2c1=O
9 | 180 to 185 | CNS(=O)(=O)c1ccccc1S(=O)(=O)NC(=O)Nc1nc(C)cc(C)n1
10 | 116 | CN=C(NC#N)S(C)=O (stereo not given)
11 | > 300 | O=C(Cc1ccccc1)Nc1cc(C(=O)O)cc(C(=O)O)c1
12 | 60 to 61 | COc1cc(C=O)ccc1OCCCl
13 | 106 to 108 | O=C(c1ccc2nonc2c1)N1CC2C=CC1C2 (stereo not given)
14 | 280 | CC1=Nc2c(C)nn(C)c2C2=NC(C)C(C)N12 (stereo not given)
15 | 188 to 189 | O=[N+]([O-])c1ccc(Cl)c(C=Cc2nc3ccccc3s2)c1
16 | 117 to 118 | CNC(=O)n1nc(Oc2ncc(C(F)(F)F)cc2Cl)c(C)c1C
17 | 232 | OCc1cccc(-c2cnc3cnc(-c4ccc(O)cc4)nc3c2)c1
18 | 126 | Cc1oc2c(Br)cc(C=O)cc2c1C
19 | 248 | CC(C(=O)O)c1ccc(-c2cn3cccnc3n2)cc1 (stereo not given)
20 | 274 to 281 | CN1CCN(c2cccc(-c3cnn4cc(C(=O)O)cnc34)c2)CC1
21 | 127 to 129 | COCCOc1ccc(CCCOc2nn(C)cc2CC(=O)O)c(Oc2ncc(C(F)(F)F)cc2Cl)c1
22 | 170 to 172 | CCCc1nc2c(N)nc3ccccc3c2n1CC(=O)OCC
23 | 142 | O=C1c2ccccc2C(=O)N1CCc1cccc(N2C(=O)N(c3c(Cl)cccc3Cl)Cc3cnc(Nc4ccccc4)nc32)c1
24 | 140 to 141 | CCOC(=O)C(C#N)=CNc1cccc(I)c1
25 | > 200 | Cc1ccc(S(=O)(=O)N(CCc2cccs2)CC(=O)N[C@@H](Cc2ccccc2)C(=O)O)cc1
26 | 191 to 192 | CCOc1ccc(-c2ncc(C#N)c(Cl)n2)cc1

Row | melting point [°C] | SMILES
27 | 151 to 152 | O=C1c2ccccc2CSc2ccc(Br)cc21
28 | 212 | CC(c1ccc(NC=O)c(N)c1)n1ccnc1 (stereo not given)
29 | 102 to 103 | Cc1oc(-c2cccs2)nc1COc1ccc(CCCn2ccnc2)cc1
30 | 243 to 248 | N#Cc1nc(-c2ccc(=O)[nH]c2)c(-c2ccccc2)nc1N
31 | 107 to 110 | CN1CCN(CCOc2ccc(Nc3ncc4ccc(-c5cccnc5)n4n3)cc2)CC1
32 | 150 to 153 | CC(=O)N1CCN=C1C(O)(c1ccccc1)c1ccccn1 (stereo not given)
33 | 95 to 97 | COc1cc(C)c(C(=O)O)c(OC)c1OC
34 | 134 to 135 | COC1SC(c2ccncc2)=C(C)NC1=O (stereo not given)
35 | 163 to 165 | NC(=S)c1ccc(I)cc1
36 | 126 to 128 | O=[N+]([O-])c1ccc(C=Cc2ccc(N(CCCCCCO)CCCCCCO)cc2)cc1
37 | 92 to 93.5 | CSc1ccc(C(O)c2ccccc2)cc1 (stereo not given)
38 | 98 to 100 | CCOc1ccccc1OCCNC(=O)CCC(=O)c1ccc(F)cc1
39 | 130 | COC(=S)N(C)C[C@@H]1CN(c2cc(F)c(N3CC(=O)N(C)C3)c(F)c2)C(=O)O1
40 | 133 to 139 | O=C(O)c1nc2ccccc2nc1Cl
41 | 127 to 129 | CN1CCC(=C2c3ccccc3C=C(Br)c3ccccc32)CC1
42 | 124 to 125 | CCN(CC)CCN1C(=O)C(O)C(c2ccc(OC)cc2)Sc2c1ccc1ccccc21 (stereo not given)
43 | > 250 | Nc1ccc(-c2ccc(-c3nc(N)nc(N)n3)cc2)cc1
44 | 160 | Cn1cncc1C(O)(c1ccc(Cn2cnnn2)cc1)c1ccc2c(c1)c(-c1cccc(Cl)c1)cc(=O)n2C (stereo not given)
45 | 245 | O=C(O)c1cc(Cl)cc2c1[nH]c1ccccc12
46 | 170 to 171 | CCCOc1ccccc1C1=NC(=O)C2=CN=NC2=N1
47 | 131 to 132 | Cc1cc(Oc2ccc(C#CC(C)N(O)C(N)=O)o2)ccc1F (stereo not given)
48 | 125 to 126 | COc1cc(C=CN(C)C)c([N+](=O)[O-])cc1OC
49 | 111 to 113 | C=CCOc1ccc(OC2CCCCO2)c2c1NC(=O)CC2 (stereo not given)
50 | 116 to 117 | O=C(c1ccc(F)cc1)N1CCOC(c2nc(-c3ccc(F)cc3)no2)C1 (stereo not given)
51 | 158 to 159 | O=C(Nc1cnccn1)N1CCN(c2nc(-c3cccc(F)c3)cs2)CC1
52 | 173 | Cc1nn(C)c(Cl)c1S(N)(=O)=O

Row | melting point [°C] | SMILES
53 | 205 to 213 | CCOC(=O)c1ccc(N=C(Nc2ccc(C(=O)OCC)cc2)c2ccc(C#N)cc2)cc1
54 | 52 to 58 | CCOC(=O)c1c(C(F)(F)F)nc(C(F)(F)F)c(C(=O)OCC)c1N
55 | 144 to 146 | CC(C)Nc1ccc(C2=NNC(=O)Cc3cc4c(cc32)OCO4)cc1
56 | 135 | COc1cc(C(C)C)c2c(c1)S(=O)(=O)N(COc1cc(C#N)nn1-c1ccc(Cl)cc1)C2=O
57 | 205 to 207 | O=C(O)c1cccc(C(CC(=O)c2ccc(F)cc2)CC(=O)c2ccc(F)cc2)c1
58 | 175 to 184 | CC(=O)SCC(C(=O)NC(Cc1ccc(O)c(O)c1)C(=O)O)C(F)(F)F (stereo not given)
59 | 188 to 191 | CN(C)C(=O)c1cccnc1S(N)(=O)=O
60 | 78 to 79 | CC(C)N(CCN1C(=O)C(=O)c2ccc(Cl)cc21)C(C)C
61 | 183 to 184 | CCCCCCOc1ccc(N=C(NC#N)NCCC(C)(C)C)cc1
62 | 128 to 130 | CCOc1ccc(OC)cc1C(N)=O
63 | 170 | O=C(Cc1ccc(Cl)cc1)Nc1cccc2nc(N[C@@H]3CCc4ccccc43)ccc12
64 | 284 to 286 | c1ccc(C(CCN2CC3CCC(CC3)C2)(c2ccccc2)c2nnn[nH]2)cc1
65 | 196 to 197 | O=C(O)CNC(=O)Nc1cccc(C(=O)O)c1
66 | 214 to 217 | O=C(O)C1=Cc2cc(Cl)c(S(=O)c3ccc(Cl)cc3)cc2OC1C(F)(F)F (stereo not given)
67 | 57 | CC1(C)C(C=CC(=O)Oc2ccccc2)C1C(=O)O (stereo not given)
68 | 117 | COc1ccc(NC(=O)NCCCl)cc1OC
69 | 118 | CCOC(=O)c1nn(Cc2ccc(Cl)c(Cl)c2)c(-c2ccc(Cl)cc2)c1C
70 | 248 to 249 | Cc1c(Cc2cccnc2)sc2cc(C(=O)O)ccc12
71 | 169 to 171 | COc1ccc(N2C(=O)C(=C3CCCN3)c3ccccc32)cc1F
72 | 103 to 104 | COc1cc(C(O)P(=O)(OC)OC)cc(OC)c1OC (stereo not given)
73 | > 330 | O=C(O)c1cccc(-c2cc3ccc(Cl)cc3[nH]c2=O)c1
74 | 116 to 118 | CC(=O)OCCc1ccccc1S(N)(=O)=O
75 | 98 to 106 | CC(CCCO[Si](C)(C)C(C)(C)C)C1CCC2C3=CC=C4C(C)(C)C(O[Si](C)(C)C(C)(C)C)CCC4(C)C3CCC21C (stereo not given)
76 | 131 to 133 | CCN(CC)CCCC1CCN(CCNC(=O)N2c3ccccc3NC(=O)c3csc(C)c32)CC1
77 | 190 | CCN(CC)c1ccc(-c2cc(-c3ccc(C(=O)O)cc3)ccc2O)cc1C(C)(C)C
78 | 84 to 88 | CC1(C)CCC(C)(C)c2cc(C#Cc3ccc(CN)cc3)ccc21

Row | melting point [°C] | SMILES
79 | 118 to 123 | Oc1ccc(-c2nnc(CCCCCc3ccccc3)o2)cc1
80 | 215 to 218 | O=C(O)c1cc(-n2c(-c3ccccc3)cc3c2-c2ccccc2CC3)ccc1O
81 | 85 to 87 | CC1(C)OC[C@H](Cn2cc3nccc(I)c3n2)O1
82 | > 300 | COc1cccc2c1CN(c1nc3c(cc1F)c(=O)c(C(=O)O)cn3C1CC1)C2
83 | 208 to 212 | CCCCn1c(=O)n(Cc2ccccc2)c(=O)c2[nH]c(Cc3ccc(N4C(=O)CCC4=O)cc3)nc21
84 | 150 to 152 | CCOC(=O)Cc1ccc(C(=O)c2ccccc2)cc1N
85 | 215 to 216 | O=S1(=O)CCN2CCCC(c3ccc(Oc4ccc(Cl)cc4)cc3)C2=N1 (stereo not given)
86 | 196 to 198 | O=c1c(-c2ccccc2O)coc2cc(O)ccc12
87 | 81 to 85 | COc1ccc(CCNC(=O)CN(C(=O)OCc2ccccc2)c2ccc(C)cc2)cc1OC
88 | 130 to 131 | Cc1ccc(C(=O)C2=C(N)CCCC2)cc1
89 | 110 to 112 | O=C(Oc1ccccc1)n1c(=O)c(F)cn(C2CC(OCc3ccccc3)C(CO)O2)c1=O (stereo not given)
90 | 90 to 100 | O=C(O)CC1(CC(O)=NO)CCCCCC1
91 | 105 to 108 | CCC(C(C)=CC(CNC(=O)c1cccnc1)=NO)[N+](=O)[O-] (stereo not given)
92 | 144 to 147 | O=c1c2cnc(-c3ccccc3)nc2sn1CCc1ccccc1
93 | 248 | CCn1c(N)c(C(N)=O)c(=O)c2cnc(Nc3ccc(NCC(=O)C4CC4)cc3)nc21
94 | 146 to 147 | COc1c(N2CCO[C@@H](CN(C)C)C2)c(F)cc2c(=O)c(C(=O)O)cn(C3CC3)c12
95 | 103 to 109 | O=Cc1ccc(OCc2ccc3ccccc3c2)cc1
96 | 126 to 127 | COc1ccc(CCC(=O)c2ccc(O)cc2)c(OC)c1
97 | 182 to 183 | CCOC(=O)c1nc2sc(C(C)C)cc2c(=O)[nH]1
98 | 175 to 176 | CN(C)CC(=O)N1c2cc(Cl)ccc2N(C)S(=O)(=O)c2ccccc21
99 | 120 to 123 | CC(=O)OCCOc1ncnc(NS(=O)(=O)c2ccc(C)cc2)c1CCc1ccccc1
100 | 198 | CCCCC1(C(F)(F)F)NC(=O)Nc2ccc(F)cc21 (racemic)
101 | 69 to 70 | CCCCOCc1cc2ccccc2oc1=O

Row | SMILES | melting point [°C]
102 | CN1Cc2c(C(=O)OC(C)(C)C)ncn2-c2cccnc2C1=O | 234 to 236
103 | CNC1=Nc2ccc(Cl)cc2C(c2ccccc2Cl)=NC1 | 216 to 219
104 | CC(C)CC(C)(C#N)N=NC(C)(C#N)CC(C)C (stereo not given) | 52 to 56
105 | N#Cc1c(F)cc(OCCOc2ccc3ccccc3c2)cc1F | 148 to 149
